Read-outs that look alike come from different tables or passages of the source.
Experiments:
[1] = tested on: alkaline phosphatase (ALP); conditions: for Fluo. Z Score: SAR of library and proprietary analogs, AttoPhos assay, C2C12; for RFU Score Threshold ≥ 800: Ex 450/Em 580 nm, rank in brackets not taken; for Fluorescence Z Score Threshold ≥ 10: Z score on DMSO control wells; for RFU Score (10 μM): 154-analog library, C2C12, duplicate
Text: (§1) To identify small-molecule activators of osteoblast differentiation, we measured ALP activity using a fluorescent emission assay as a reporter for enzymatic digestion of ALP substrate in lysates derived from C2C12 myoblasts. […] Therefore, before screening, the assay was calibrated using recombinant human BMP4 protein as a positive control. Compounds were robotically deposited onto 384-well plates and then overlaid by C2C12 cells for a 4-day culture period, followed by lysis and fluorescent substrate assays (FIG. 1A; Table 1). To ensure uniformity, C2C12 cells were maintained in normal culture medium containing 10% fetal bovine serum, and lysis and substrate addition achieved using a microplate multidrop device. The primary screen (Table 2) encompassed greater than 47,000 small molecules tested at a final concentration of 10 μM.
(§2) For the primary screen, library compounds were distributed onto 384-well microplates (Greiner Bio-One 781091) at a final concentration of 10 μM in culture medium using a Perkin Elmer Janus automated workstation and WinPrep Version 4.8.3.315. Positive (rhBMP4, 1 ng/ml, R&D Systems) and negative controls (DMSO, 0.2%) were manually added to each plate by multichannel pipet. C2C12 cells were seeded onto compounds and controls at a density of 2000/well using a Thermo Multidrop Combi reagent dispenser and cultured for 4 days at 37° C., 5% CO2. Culture medium was aspirated using a BioTek EL406 plate washer and cells were lysed in RIPA buffer (Millipore 20-188) at ambient temperature for 10 minutes. 10 μl fluorescent alkaline phosphatase substrate (AttoPhos, Promega S1000) was added to lysates and incubated an additional 10 minutes before measuring the fluorescence (Excitation 450 nm/Emission 580 nm) on a BioTek Synergy Neo2 stacking microplate reader. Plates were processed and relative fluorescence raw values measured in stacks of 10-20. The data were processed using Collaborative Drug Discovery web-based software (CDD Vault) to determine Z score calculated on DMSO control wells and percent activation normalized against positive and negative controls (NPA). Cherry-picked hit candidates were re-tested in concentration response experiments, from which 4 candidates were chosen and purchased for further testing from either ChemBridge or Enamine, based on availability.
(§3) We also purchased a library of 154 structural chemical analogs assembled by ChemBridge Corp. from available screening library compounds.

[2] = tested on: alkaline phosphatase (ALP); assay: cells; conditions: Mus musculus; for activation at 10 µM: C2C12, 96 h
Text: as §1, §2, §3

[3] = primary screen, 10 μM, C2C12, 4 days
[4] = read-out: NPA Score Threshold ≥ 5.0 (normalized percent activation)

Compound	RFU Score Threshold ≥ 800 [1, 3]	Fluorescence Z Score Threshold ≥ 10 [1, 3]	activation at 10 µM [2, 4]	RFU Score (10 μM) ([1]; 10 μM)	activation at 10 µM [2]	also measured
O=C(Nc1ccc(O)cc1)c1cc2cc(Cl)ccc2[nH]c1=O [BT351]	–	–	–	–	–	Fluo. Z Score [1]: 1.48 ± 1.26; EC50 ([2]; C2C12): 20.9 µM
CC1(C)OB(c2c(C(=O)O)c(=O)[nH]c3ccc(Cl)cc23)OC1(C)C [BT353]	–	–	–	–	–	Fluo. Z Score [1]: 3.15 ± 0.34; EC50 ([2]; C2C12): 5.31 µM
CC(C)N1CCC(SCc2ccc(F)cc2C#N)C1=O (stereo not shown) [RU-0201425]	Below Threshold	Below Threshold	5.69%	–	–	–
O=C(NC1CCN(c2ccc(F)cc2)CC1)N(CC1CCOC1)C1CC1 (stereo not shown) [RU-0219256]	Below Threshold	Below Threshold	5.69%	–	–	–
CCCN(C)CC1CCN(C(C)C(=O)Nc2ccc(C(F)(F)F)cc2)C1 (stereo not shown) [RU-0219355]	819 (28)	Below Threshold	6.14%	–	–	–
Cc1cc(C)c2[nH]c(=O)c(-c3c(-c4ccccc4)ncn3CCCO)cc2c1 [RU-0220396]	–	–	–	–	–	Fluo. Z Score [1]: −0.3 ± 0.20; EC50 ([2]; C2C12): 2.63 µM
CO[C@H]1CN(Cc2cccc(Cl)c2Cl)CC[C@H]1N [RU-0221236]	Below Threshold	Below Threshold	5.13%	–	–	–
O=C(NC1CC1)C1CCCN(C2CCN(c3ccc(C(F)(F)F)cn3)CC2)C1 (stereo not shown) [RU-0221613]	Below Threshold	Below Threshold	5%	–	–	–
c1ccc(-c2nc[nH]c2-c2ccccc2Cn2cccn2)cc1 [RU-0222072]	–	–	–	425	5.05%	–
CC(C)c1nnc(CN2C[C@H]3CC=CC[C@H]3C2)o1 [RU-0223925]	1120 (6)	18.94 (8)	11.2%	–	–	–
Cc1c(-c2ccccc2F)[nH]c2ccc(CNS(=O)(=O)N3CCCC3)cc12 [RU-0225107]	805 (34)	Below Threshold	5.07%	–	–	–
Cc1cc(C)c2[nH]c(=O)c(CN3CCC4(CCCNC4)C3)cc2c1 (stereo not shown) [RU-0227342]	–	–	–	591	11%	–
Cc1cc(C)c2[nH]c(=O)c(CN3CCC4(CCOCC4)CC3)cc2c1 [RU-0227345]	–	–	–	384	3.6%	–
CC(=O)NCCC1CCCCN1Cc1cc2cc(C)cc(C)c2[nH]c1=O (stereo not shown) [RU-0227648]	–	–	–	494	7.48%	–
O=C(c1[nH]cnc1-c1ccccc1)N1CC[C@H](CO)[C@H](O)C1 [RU-0227868]	–	–	–	505	7.88%	–
Cc1cc(C)c2[nH]c(=O)c(CN3CCOC(CN)C3)cc2c1 (stereo not shown) [RU-0228809]	–	–	–	341	1.81%	–
CC1CCN(C(=O)COc2ccccc2-c2[nH]cnc2-c2ccccc2)CC1 [RU-0228904]	–	–	–	590	10.9%	–
OCc1ccc(CN2CCCC(COc3ccccc3F)C2)o1 (stereo not shown) [RU-0229103]	1980 (2)	46.85 (2)	6.82%	–	–	–
CN(C)CCC1CN(C(=O)c2[nH]cnc2-c2ccccc2)CCO1 (stereo not shown) [RU-0231240]	–	–	–	596	11.1%	–
COc1ccc(-c2[nH]cnc2-c2ccccc2)cc1CN(C)C [RU-0231652]	–	–	–	299	0.62%	–
Cc1ccccc1OCCCN(C)c1nc(-c2cccnc2)nc2c1CNC2 [RU-0231961]	Below Threshold	Below Threshold	5.5%	–	–	–
c1ccc(-c2nc[nH]c2-c2cccc(CN3CCOCC3)c2)cc1 [RU-0232369]	–	–	–	294	0.43%	–
O=C(c1[nH]cnc1-c1ccccc1)N1CCCC(Nc2ccc(F)cc2)C1 (stereo not shown) [RU-0236307]	–	–	–	473	6.76%	–
Cc1cc(C)n(CC(C)Nc2nc(-c3ccncc3)nc3c2CNC3)n1 (stereo not shown) [RU-0236897]	Below Threshold	Below Threshold	5.32%	–	–	–

Compound	RFU Score Threshold ≥ 800 [1, 3]	Fluorescence Z Score Threshold ≥ 10 [1, 3]	activation at 10 µM [2, 4]	RFU Score (10 μM) ([1]; 10 μM)	activation at 10 µM [2]	also measured
CCc1ncc2c(n1)CN(C(=O)c1[nH]cnc1-c1ccccc1)C2 [RU-0237095]	–	–	–	453	6.04%	–
COc1ccc(-c2n[nH]cc2-c2[nH]cnc2-c2ccccc2)cc1 [RU-0237450]	–	–	–	466	6.49%	–
CCc1cnc(C)nc1N1CCCC(Cc2cccnc2)C1 (stereo not shown) [RU-0238003, 5-ethyl-2-methyl-4-[3-(pyridin-3-ylmethyl)piperidin-1-yl]pyrimidine]	1340 (3)	36.44 (3)	–	–	–	NPA Score Threshold ≥ 5.0 (normalized percent activation) ([1]; primary screen, 10 μM, C2C12, 4 days, normalized against rhBMP4 positive and DMSO negative controls): Below Threshold; EC50 ([2]; C2C12, read-out: Measured EC50): > 40 µM
Cc1ccc(-n2cc(CN3CCCC(Cn4ccnc4C)C3)cn2)cc1C (stereo not shown) [RU-0238394]	914 (15)	12.45 (19)	5.54%	–	–	–
Cc1cc(C)c2[nH]c(=O)c(CN3CCN4CCN(C)CC4C3)cc2c1 (stereo not shown) [RU-0238998]	–	–	–	469	6.62%	–
COc1cc(OC)c(-c2[nH]cnc2-c2ccccc2)c(OC)c1 [RU-0239439]	–	–	–	472	6.72%	–
Cc1nc2cc(-c3cccc4ccnn34)ccc2s1 [RU-0239646]	Below Threshold	Below Threshold	5.22%	–	–	–
CCCC(C)c1nnc(NC(=O)c2ccccc2-n2cncn2)s1 (stereo not shown) [RU-0242581]	849 (24)	Below Threshold	5.51%	–	–	–
CN(C)CCNc1cc(-c2ccc(Cl)cc2F)c2cc[nH]c2n1 [RU-0242925]	Below Threshold	Below Threshold	5.73%	–	–	–
Cc1nc2cc(C(=O)N3CCNC(=O)C3)ccc2s1 [RU-0243566]	Below Threshold	Below Threshold	5.55%	–	–	–
CN1CC2(CCCN(C(=O)c3[nH]cnc3-c3ccccc3)CC2)OC1=O (stereo not shown) [RU-0245926]	–	–	–	558	9.73%	–
COc1cccc(-c2[nH]cnc2-c2ccccc2)c1OCCN(C)C [RU-0247047]	–	–	–	558	9.73%	–
C=CCc1cc(-c2[nH]cnc2-c2ccccc2)cc(OC)c1O [RU-0248392]	–	–	–	423	4.98%	–
CN(C)CC1(O)CCN(C(=O)c2[nH]cnc2-c2ccccc2)C1 (stereo not shown) [RU-0248829]	–	–	–	325	1.52%	–
c1ccc(-c2nc[nH]c2-c2ccccc2OCCCN2CCOCC2)cc1 [RU-0248967]	–	–	–	512	7.58%	–
CN1CCC(Cc2noc(-c3[nH]cnc3-c3ccccc3)n2)CC1 [RU-0249023]	–	–	–	293	0.4%	–
c1ccc(-c2nc[nH]c2-c2ccc(OCCn3ccnc3)cc2)cc1 [RU-0249817]	–	–	–	561	9.84%	–
O=C(CCc1n[nH]c2c1CCCC2)N1CCC2(CCCO2)CC1 [RU-0250369]	Below Threshold	Below Threshold	5.46%	–	–	–
O=C(NC1CC(=O)N(CCc2ccccc2)C1)c1[nH]cnc1-c1ccccc1 (stereo not shown) [RU-0252250]	–	–	–	533	8.85%	–
CN1CC2(CCN(C(=O)c3[nH]cnc3-c3ccccc3)C2)OC1=O (stereo not shown) [RU-0253075]	–	–	–	500	7.71%	–
Cc1cc(C)c2[nH]c(=O)c(-c3nccn3CCc3cn[nH]c3)cc2c1 [RU-0253216]	–	–	–	341	2.09%	–
CCN1CCN(CCOc2ccccc2-c2[nH]cnc2-c2ccccc2)CC1 [RU-0253941]	–	–	–	547	9.34%	–
c1cc2c(cc1NC1CCCNC1)OCCO2 (stereo not shown) [RU-0256394]	Below Threshold	Below Threshold	5.87%	–	–	–
Cc1cc(C)c2[nH]c(=O)c(CN(C)Cc3c(C)noc3C)cc2c1 [RU-0259020]	–	–	–	514	8.18%	–

— patent US11478466B2, “Small molecule promoting osteoblast differentiation” (Cornell University, priority 2019, dated 2022)
